Source: PubChem BioAssay (NCI)
Several values for one entry are separate records, joined by “and”; a condition that tells them apart may be missing. Equal values may be shown once.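 Where inhibition never reached the appropriate level, the endpoint shown equals the highest concentration tested. Otherwise, values were interpolated linearly from a five-concentration, 48-hour dose response in 96-well plates. GI50 marks 50% less growth. TGI: concentration producing complete growth inhibition.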

Assays:
Assay in all cases: inhibition of tumour cell growth, NCI panel, 48 h
HCT-15 colon = system: HCT-15 colon
CCRF-CEM leukemia = system: CCRF-CEM leukemia
OVCAR-3 ovarian = system: OVCAR-3 ovarian
SK-MEL-5 melanoma = system: SK-MEL-5 melanoma
SF-268 CNS = system: SF-268 CNS
OVCAR-4 ovarian = system: OVCAR-4 ovarian
SNB-19 CNS = system: SNB-19 CNS
A498 renal = system: A498 renal
SK-MEL-2 melanoma = system: SK-MEL-2 melanoma
EKVX NSCLC = system: EKVX NSCLC

SMILES | GI50 (HCT-15 colon) | TGI (HCT-15 colon) [µM] | GI50 (CCRF-CEM leukemia) [µM] | TGI (CCRF-CEM leukemia) [µM] | GI50 (OVCAR-3 ovarian) | TGI (OVCAR-3 ovarian) [µM] | GI50 (SK-MEL-5 melanoma) | TGI (SK-MEL-5 melanoma) [µM] | GI50 (SF-268 CNS) [µM] | TGI (SF-268 CNS) [µM] | GI50 (OVCAR-4 ovarian) | TGI (OVCAR-4 ovarian) [µM] | GI50 (SNB-19 CNS) [µM] | TGI (SNB-19 CNS) [µM] | GI50 (A498 renal) [µM] | TGI (A498 renal) [µM] | GI50 (SK-MEL-2 melanoma) | TGI (SK-MEL-2 melanoma) [µM] | GI50 (EKVX NSCLC) [µM] | TGI (EKVX NSCLC) [µM]
CO[C@H]1/C=C/O[C@@]2(C)Oc3c(C)c(O)c4c(O)c(c(/C=N/N5C(C)CN(Cc6ccc(C#N)cc6)CC5C)c(O)c4c3C2=O)NC(=O)/C(C)=C\C=C\[C@H](C)[C@H](O)[C@@H](C)[C@@H](O)[C@@H](C)[C@H](OC(C)=O)[C@@H]1C (some centres undefined) | 6.01 µM | 14 | 2.12 | 12.3 | 6.99 µM | 13.5 | 5.91 µM | 12.3 | 9.58 | 24.1 | 7.49 µM | 26.4 | 7.55 | 18.1 | 7.06 | 14 | 7.92 µM | 15.9 | 4.26 | 39.4
CCCC(=O)Oc1ccc(/C=N/NC(N)=S)nc1 | – | > 100 | – | > 100 | – | > 100 | – | > 100 | – | > 100 | – | > 100 | – | > 100 | – | > 100 | – | > 100 | – | > 100
Cn1cc(-c2ncnc3ccc(-c4cnc(Cl)c(NS(C)(=O)=O)c4)cc23)c2ccccc21 | 0.447 µM | > 71.1 | 0.687 | > 62.7 | 0.617 µM | 13.8 | 1.2 µM | 3.07 | 1.09 | > 100 | 0.921 µM | 6.99 | 1.67 | 23.4 | 0.207 | 1.4 | 1.16 µM | 4.85 | 0.598 | –
COc1cccc(C2SC(C)C(=O)N2NC(=O)C(O)c2ccccc2)c1 (centres undefined) | > 100 µM | > 100 | > 100 | > 100 | > 100 µM | > 100 | > 100 µM | > 100 | > 100 | > 100 | 41.7 µM | > 100 | > 100 | > 100 | > 100 | > 100 | > 100 µM | > 100 | > 100 | > 100
Cc1ccccc1SC(/C=C/NNC1=NC(c2ccccc2)C(c2ccccc2)=NN1)c1ccccc1 (centres undefined) | – | > 100 | – | 94.4 | – | 31.7 | – | > 100 | – | 58.7 | – | 9.16 | – | > 100 | – | 64.2 | – | 45.3 | – | > 100
C[C@]12CC[C@@H]3c4ccc(O)cc4CC[C@H]3[C@@H]1CC(Cc1ccccc1)(Cc1ccccc1)C2=O | 13.9 µM | 28.7 | 14.3 | 36.4 | 16 µM | 38.3 | 17.9 µM | 31.8 | 21.2 | 58.3 | 12.7 µM | 27.3 | 18 | 34.5 | 21.3 | 36.5 | 24.8 µM | 53.6 | 10.9 | 24.7
Cn1cnc(SC2=CC(=O)C=C3S[C@H]4C[C@@]23c2c(c(O)c3c5c2=NCCC=5C=N3)N4)c1CC(N)C(=O)O (some centres undefined) | 18.4 µM | 33.7 | 3.76 | 44.1 | 3.24 µM | 10.7 | 14.5 µM | 27.6 | 12.4 | 26.1 | 13.4 µM | 26.2 | 19.3 | 33.5 | 18.1 | 32.7 | 9.62 µM | 24.7 | 19.3 | 34.3
C/C(=N\N)C(CN1CCOCC1)C(c1ccccc1)c1c(O)c2ccccc2oc1=O (centres undefined) | – | > 100 | – | > 100 | – | > 100 | – | > 100 | – | > 100 | – | > 100 | – | > 100 | – | > 100 | – | > 100 | – | > 100
C[C@]1(c2nc3c(C(N)=O)cccc3[nH]2)CCCN1 | 54.4 µM and > 100 µM | > 100 | > 100 | > 100 | 53.6 µM and > 100 µM | > 100 | > 76.4 µM and 98.5 µM | > 100 | > 100 | > 100 | 66.1 µM and > 100 µM | > 100 | > 100 | > 100 | > 100 | > 100 | 79.4 µM and > 100 µM | > 100 | > 100 | > 100
NC(CCl)=NCC12CC3CC(CC(C3)C1)C2 | 0.807 µM | 13.7 | 0.348 | 3.27 | 0.687 µM | 7.23 | 0.973 µM | 3.79 | 1.9 | 12.1 | 1.87 µM | 17.4 | 10 | 23 | 1.37 | 13.4 | 2.06 µM | 7.46 | 2.23 | 21.1
COc1cccc(/C=C2\N=C(Cl)OC2=O)c1O | – | > 100 | – | > 100 | – | > 100 | – | > 100 | – | > 100 | – | > 100 | – | > 100 | – | > 100 | – | > 100 | – | > 100
CC1(C)CC[C@]2(C(=O)NCCNCCN)CC[C@]3(C)C(=CC[C@@H]4[C@@]5(C)CCC(=O)C(C)(C)[C@@H]5CC[C@]43C)[C@@H]2C1 | 1.79 µM | 3.29 | 2.51 | 8.64 | 1.85 µM | 3.29 | 1.8 µM | 3.22 | 1.89 | 4.06 | 1.89 µM | 3.66 | 1.73 | 3.23 | 8.01 | 23.6 | 1.94 µM | 4.05 | 1.74 | 3.67
